# Assay results from patent US11225470B2, “Tetrazolinone compounds and its use as pest control agents” (SUMITOMO CHEMICAL COMPANY, LIMITED, priority 2016, dated 2022).
# Tested on: tomato early blight fungi (Alternaria solani; QoI resistant strain, cytochrome b phenylalanine 129 mutated to leucine)
# Format: in vivo
# Details: 200 ppm foliar spray, inoculation after 1 day; tomato cv PATIO
structure (smiles),measurement,value
CCC(=NN=C(C)c1ccc2ccccc2c1)OCc1c(C)cccc1-n1nnn(C)c1=O [cf1],lesion area compared to the lesion area in an untreated tomato,≥ 70%
